Patent publication US7211576B2, “Diaminothiazoles” (Hoffmann-La Roche Inc., priority 2004, dated 2007)
Read-outs that look alike come from different tables or passages of the source.

Key:
[1] = target: human cyclin D1-CDK4 (Homo sapiens, UniProt P11802); test: FlashPlate kinase assay, cyclin D1-CDK4; format: biochemical
Description: To determine inhibition of Cdk4, Cdk2 and Cdk1 activity, kinase assays were conducted using FlashPlate™ assays (NEN™-Life Science Products). FlashPlate assays were performed using recombinant human cyclin B-CDK1, human cyclin E-CDK2 or human cyclin D1-CDK4 complexes. GST-cyclinE (GST-cycE), CDK2, GST-cyclinB (GST-cycB), CDK1, GST-CDK4 and cyclin D1 (cycD1) cDNA clones in baculovirus vectors were provided by Dr. W. Harper at the Baylor College of Medicine, Houston, Tex.
(§1) The expression of the 62Kd protein was under the control of an IPTG inducible promoter in an M15 E. coli strain. Cells were lysed by sonication and purification was carried out by binding lysates at pH 8.0 to a Ni-chelated agarose column pretreated with 1 mM imidazole. The resin was then washed several times with incrementally decreasing pH buffers to pH 6.0, and eluted with 500 mM imidazole. Eluted protein was dialysed against 20 mM HEPES pH 7.5, 30% glycerol, 200 mM NaCl, and 1 mM DTT. Purified Rb fusion protein stocks were quantitated for protein concentration, aliquoted, and stored at −70° C.
(§2) For all three kinase assays reported herein, 96-well FlashPlates were coated with Rb protein at 10 μg/ml, using 100 μl per well. Plates were incubated at 4° C. overnight or at room temperature for 3 hours on a shaker. To control for nonspecific phosphorylation, one row of wells was coated with 100 μl/well coating buffer (20 mM HEPES, 0.2 M NaCl). Plates were then washed twice with wash buffer (0.01% Tween 20 in phosphate-buffered saline). Compounds to be tested (“test compounds”) were added to the wells at 5× final concentration. Reactions were initiated by immediate addition of 40 μl reaction mix (25 mM HEPES, 20 mM MgCl2, 0.002% Tween 20, 2 mM DTT, 1 μM ATP, 4 nM ^33P-ATP) and a sufficient amount of enzyme to give counts that were at least 10-fold above background. Plates were incubated at room temperature on a shaker for 30 minutes. Plates were washed four times with the wash buffer, sealed, and counted on the TopCount scintillation counter (Packard Instrument Co., Downers Grove, Ill.]. The percent inhibition of Rb phosphorylation, which is a measure of the inhibition of CDK activity, was determined according to the following formula:
[formula] where “test compound” refers to the average counts per minute of the test duplicates, “nonspecific” refers to the average counts per minute when no CyclinD/Cdk4, etc., was added, and “total” refers to the average counts per minute when no compound was added.

[2] = target: human cyclin B-CDK1 (Homo sapiens, UniProt P06493); test: FlashPlate kinase assay, cyclin B-CDK1; format: biochemical; settings: Rb protein substrate, 1 μM ATP, 33P-ATP, 30 minutes room temperature
Description: To determine inhibition of Cdk4, Cdk2 and Cdk1 activity, kinase assays were conducted using FlashPlate™ assays (NEN™-Life Science Products). FlashPlate assays were performed using recombinant human cyclin B-CDK1, human cyclin E-CDK2 or human cyclin D1-CDK4 complexes. GST-cyclinE (GST-cycE), CDK2, GST-cyclinB (GST-cycB), CDK1, GST-CDK4 and cyclin D1 (cycD1) cDNA clones in baculovirus vectors were provided by Dr. W. Harper at the Baylor College of Medicine, Houston, Tex. Proteins were co-expressed in High Five™ insect cells and the complex was purified on glutathione Sepharose resin (Pharmacia, Piscataway, N.J.) as previously described (Harper, J. W. et al. Cell 1993, 75, 805–816). A 6×-Histidine tagged truncated form of retinoblastoma (Rb) protein (amino acid 386–928) was used as the substrate for the cycD1-CDK4, cycB-CDK1 and the cycE-CDK2 assays (the expression plasmid was provided by Dr. Veronica Sullivan, Department of Molecular Virology, Roche Research Centre, Welwyn Garden City, United Kingdom). The Rb protein is a natural substrate for phosphorylation by CDK4, CDK2 and CDK1 (see Herwig and Strauss Eur. J. Biochem. Vol. 246 (1997) pp. 581–601 and the references cited therein).
as §1, §2
[formula] where “test compound” refers to the average counts per minute of the test duplicates, “nonspecific” refers to the average counts per minute when no CyclinD/Cdk4, etc., was added, and “total” refers to the average counts per minute when no compound was added. The IC50 value is the concentration of test compound that reduces by 50% the protein-kinase induced incorporation of the radiolabel under the test conditions described.

[3] = Rb protein substrate, 1 μM ATP, 33P-ATP, 30 minutes room temperature, read-out: CDK4 IC50

human cyclin B-CDK1, sequence (P06493 whole entry): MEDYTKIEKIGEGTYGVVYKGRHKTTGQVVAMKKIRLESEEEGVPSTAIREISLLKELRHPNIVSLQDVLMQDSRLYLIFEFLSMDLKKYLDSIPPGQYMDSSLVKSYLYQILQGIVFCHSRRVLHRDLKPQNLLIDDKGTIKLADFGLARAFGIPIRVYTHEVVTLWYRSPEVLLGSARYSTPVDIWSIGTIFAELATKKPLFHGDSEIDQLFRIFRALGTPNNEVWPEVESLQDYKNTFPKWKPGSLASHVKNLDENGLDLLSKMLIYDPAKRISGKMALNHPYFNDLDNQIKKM
human cyclin B-CDK1, sequence (P14635 whole entry partner): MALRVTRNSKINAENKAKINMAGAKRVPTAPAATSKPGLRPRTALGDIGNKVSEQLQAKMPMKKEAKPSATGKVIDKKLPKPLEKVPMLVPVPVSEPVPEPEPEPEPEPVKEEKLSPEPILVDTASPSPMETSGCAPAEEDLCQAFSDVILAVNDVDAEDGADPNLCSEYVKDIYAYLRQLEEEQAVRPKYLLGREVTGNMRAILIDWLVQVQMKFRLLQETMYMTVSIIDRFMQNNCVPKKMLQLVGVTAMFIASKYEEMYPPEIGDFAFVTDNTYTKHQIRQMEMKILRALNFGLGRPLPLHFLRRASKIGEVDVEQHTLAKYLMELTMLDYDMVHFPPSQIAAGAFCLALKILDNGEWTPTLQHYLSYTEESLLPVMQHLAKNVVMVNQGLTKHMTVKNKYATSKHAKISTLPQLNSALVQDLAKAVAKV
human cyclin D1-CDK4, sequence (P11802 whole entry): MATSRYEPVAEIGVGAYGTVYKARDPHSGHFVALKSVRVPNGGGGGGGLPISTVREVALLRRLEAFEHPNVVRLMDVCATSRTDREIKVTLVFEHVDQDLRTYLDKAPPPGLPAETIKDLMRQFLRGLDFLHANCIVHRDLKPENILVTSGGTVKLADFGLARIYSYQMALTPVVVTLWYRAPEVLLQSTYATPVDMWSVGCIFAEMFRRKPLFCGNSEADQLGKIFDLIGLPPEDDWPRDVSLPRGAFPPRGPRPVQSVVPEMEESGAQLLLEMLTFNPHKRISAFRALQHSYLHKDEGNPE
human cyclin D1-CDK4, sequence (P24385 whole entry partner): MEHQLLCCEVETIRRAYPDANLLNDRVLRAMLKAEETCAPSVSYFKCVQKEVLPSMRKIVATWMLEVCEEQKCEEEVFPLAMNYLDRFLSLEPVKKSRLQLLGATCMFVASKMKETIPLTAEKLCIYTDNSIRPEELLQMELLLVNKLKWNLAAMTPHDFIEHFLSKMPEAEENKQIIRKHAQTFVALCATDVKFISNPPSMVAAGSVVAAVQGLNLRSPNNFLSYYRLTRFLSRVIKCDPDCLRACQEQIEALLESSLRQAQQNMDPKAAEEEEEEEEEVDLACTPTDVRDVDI

| Structure (SMILES) | IC50 [1, 3] | IC50 [2] | IC50 [1] |
| --- | --- | --- | --- |
| CN(C)C1CCN(c2ccc(Nc3nc(N)c(C(=O)c4ccc(C#N)cc4)s3)cc2)CC1 [Example 47, 4-{4-Amino-2-[4-(4-dimethylamino-piperidin-1-yl)-phenylamino]-thiazole-5-carbonyl}-benzonitrile] | 186 nM | – | – |
| CN(C)C1CCN(c2ccc(Nc3nc(N)c(C(=O)c4ccc([N+](=O)[O-])cc4)s3)cc2)CC1 [Example 48, {4-Amino-2-[4-(4-dimethylamino-piperidin-1-yl)-phenylamino]-thiazol-5-yl}-(4-nitro-phenyl)-methanone] | 74 nM | – | – |
| N#Cc1ccc(C(=O)c2sc(Nc3ccc(N4CCC(N5CCCC(O)C5)CC4)cc3)nc2N)cc1 (stereo not shown) [Example 51, 4-{4-Amino-2-[4-(3-hydroxy-[1,4′]bipiperidinyl-1′-yl)-phenylamino]-thiazole-5-carbonyl}-benzonitrile] | 230 nM | – | – |
| Nc1nc(Nc2ccc(N3CCC(N4CCCC(O)C4)CC3)cc2)sc1C(=O)c1ccc([N+](=O)[O-])cc1 (stereo not shown) [Example 52, {4-Amino-2-[4-(3-hydroxy-[1,4′]bipiperidinyl-1′-yl)-phenylamino]-thiazol-5-yl}-(4-nitro-phenyl)-methanone] | 71 nM | – | – |
| Nc1nc(Nc2ccc(N3CCC(N4CCCC4)CC3)cc2)sc1C(=O)c1ccc([N+](=O)[O-])cc1 [Example 53, {4-Amino-2-[4-(4-pyrrolidin-1-yl-piperidin-1-yl)-phenylamino]-thiazol-5-yl}-(4-nitro-phenyl)-methanone] | 96 nM | – | – |
| N#Cc1ccc(C(=O)c2sc(Nc3ccc(N4CCC(N5CCCC5)CC4)cc3)nc2N)cc1 [Example 54, 4-{4-Amino-2-[4-(4-pyrrolidin-1-yl-piperidin-1-yl)-phenylamino]-thiazole-5-carbonyl}-benzonitrile] | 212 nM | – | – |
| N#Cc1ccc(C(=O)c2sc(Nc3ccc(N4CCC(N5CCCCC5)CC4)cc3)nc2N)cc1 [Example 55, 4-[4-Amino-2-(4-[1,4′]bipiperidinyl-1′-yl-phenylamino)-thiazole-5-carbonyl]-benzonitrile] | 370 nM | – | – |
| Nc1nc(Nc2ccc(N3CCC(N4CCCCC4)CC3)cc2)sc1C(=O)c1ccc([N+](=O)[O-])cc1 [Example 56, [4-Amino-2-(4-[1,4′]bipiperidinyl-1′-yl-phenylamino)-thiazol-5-yl]-(4-nitro-phenyl)-methanone] | 160 nM | 4770 nM | – |
| Nc1nc(Nc2ccc(N3CCC(N4CCCCC4)CC3)cc2)sc1C(=O)c1ccc(Cl)cc1 [Example 58, [4-Amino-2-(4-[1,4′]bipiperidinyl-1′-yl-phenylamino)-thiazol-5-yl]-(4-chloro-phenyl)-methanone] | 45 nM | – | – |
| Nc1nc(Nc2ccc(N3CCC(N4CCCCC4)CC3)cc2)sc1C(=O)c1ccc(Cl)c(Cl)c1 [Example 60, [4-Amino-2-(4-[1,4′]bipiperidinyl-1′-yl-phenylamino)-thiazol-5-yl]-(3,4-dichloro-phenyl)-methanone] | 90 nM | 5770 nM | – |
| Nc1nc(Nc2ccc(N3CCC(N4CCCCC4)CC3)cc2)sc1C(=O)c1ccc(F)cc1 [Example 61, [4-Amino-2-(4-[1,4′]bipiperidinyl-1′-yl-phenylamino)-thiazol-5-yl]-(4-fluoro-phenyl)-methanone] | 71 nM | – | – |
| Nc1nc(Nc2ccc(N3CCC(N4CCCCC4)CC3)cc2)sc1C(=O)c1ccc(C(=O)O)cc1 [Example 63] | 320 nM | – | – |
| COc1ccc(C(=O)c2sc(Nc3ccc(N4CCC(N5CCOCC5)CC4)cc3)nc2N)cc1F [Example 100, {4-Amino-2-[4-(4-morpholin-4-yl-piperidin-1-yl)-phenylamino]-thiazol-5-yl}-(3-fluoro-4-methoxy-phenyl)-methanone] | – | 4170 nM | 90 nM |

Further lines, with some results ahead:

| IC50 [1, 3] | IC50 [2] | Structure (SMILES) | IC50 [1] |
| --- | --- | --- | --- |
| 76 nM | 4020 nM | Nc1nc(Nc2ccc(N3CCC(N4CCCC4)CC3)cc2)sc1C(=O)c1cc(F)cc(F)c1 [Example 66, {4-Amino-2-[4-(4-pyrrolidin-1-yl-piperidin-1-yl)-phenylamino]-thiazol-5-yl}-(3,5-difluoro-phenyl)-methanone] | – |
| 170 nM | – | Nc1nc(Nc2ccc(N3CCC(N4CCCC4)CC3)cc2)sc1C(=O)c1ccc(Cl)cc1 [Example 67, {4-Amino-2-[4-(4-pyrrolidin-1-yl-piperidin-1-yl)-phenylamino]-thiazol-5-yl}-(4-chloro-phenyl)-methanone] | – |
| 186 nM | – | Nc1nc(Nc2ccc(N3CCC(N4CCCC4)CC3)cc2)sc1C(=O)c1ccc(F)cc1 [Example 70, {4-Amino-2-[4-(4-pyrrolidin-1-yl-piperidin-1-yl)-phenylamino]-thiazol-5-yl}-(4-fluoro-phenyl)-methanone] | – |
| 62 nM | – | Nc1nc(Nc2ccc(N3CCC(N4CCCC(O)C4)CC3)cc2)sc1C(=O)c1ccc(Cl)cc1 (stereo not shown) [Example 74, {4-Amino-2-[4-(3-hydroxy-[1,4′]bipiperidinyl-1′-yl)-phenylamino]-thiazol-5-yl}-(4-chloro-phenyl)-methanone] | – |
| 111 nM | – | Nc1nc(Nc2ccc(N3CCC(N4CCCC(O)C4)CC3)cc2)sc1C(=O)c1ccc(F)cc1 (stereo not shown) [Example 77, {4-Amino-2-[4-(3-hydroxy-[1,4′]bipiperidinyl-1′-yl)-phenylamino]-thiazol-5-yl}-(4-fluoro-phenyl)-methanone] | – |
| 400 nM | – | Nc1nc(Nc2ccc(N3CCC(N4CCCC(O)C4)CC3)cc2)sc1C(=O)c1ccc(C(=O)O)cc1 (stereo not shown) [Example 79, 4-{4-Amino-2-[4-(3-hydroxy-[1,4′]bipiperidinyl-1′-yl)-phenylamino]-thiazole-5-carbonyl}-benzoic acid] | – |
| 132 nM | – | CN(C)C1CCN(c2ccc(Nc3nc(N)c(C(=O)c4ccc(Cl)cc4)s3)cc2)CC1 [Example 83, {4-Amino-2-[4-(4-dimethylamino-piperidin-1-yl)-phenylamino]-thiazol-5-yl}-(4-chloro-phenyl)-methanone] | – |
| 114 nM | – | CN(C)C1CCN(c2ccc(Nc3nc(N)c(C(=O)c4ccc(F)cc4)s3)cc2)CC1 [Example 86, {4-Amino-2-[4-(4-dimethylamino-piperidin-1-yl)-phenylamino]-thiazol-5-yl}-(4-fluoro-phenyl)-methanone] | – |
| 677 nM | – | CN(C)C1CCN(c2ccc(Nc3nc(N)c(C(=O)c4ccc(O)c(C(N)=O)c4)s3)cc2)CC1 [Example 93, 5-{4-Amino-2-[4-(4-dimethylamino-piperidin-1-yl)-phenylamino]-thiazole-5-carbonyl}-2-hydroxy-benzamide] | – |
| 390 nM | – | NC(=O)c1cc(C(=O)c2sc(Nc3ccc(N4CCC(N5CCCC5)CC4)cc3)nc2N)ccc1O [Example 94, 5-{4-Amino-2-[4-(4-pyrrolidin-1-yl-piperidin-1-yl)-phenylamino]-thiazole-5-carbonyl}-2-hydroxy-benzamide] | – |
| 39 nM | 2700 nM | Nc1nc(Nc2ccc(N3CCC(N4CCOCC4)CC3)cc2)sc1C(=O)c1ccc2c(c1)OCCO2 [Example 98, {4-Amino-2-[4-(4-morpholin-4-yl-piperidin-1-yl)-phenylamino]-thiazol-5-yl}-(2,3-dihydro-benzo[1,4]dioxin-6-yl)-methanone] | – |
| 25 nM | 580 nM | Nc1nc(Nc2ccc(N3CCC(N4CCOCC4)CC3)cc2)sc1C(=O)c1ccc2c(c1)OCO2 [Example 101, {4-Amino-2-[4-(4-morpholin-4-yl-piperidin-1-yl)-phenylamino]-thiazol-5-yl}-benzo[1,3]dioxol-5-yl-methanone] | – |
